In patent publication US6822120B2, “Sulfone liver X-receptor modulators” (Pharmacia Corporation, priority 2002, dated 2004) one finds melting point data, which are given here for 15 compounds.

Structures are written as SMILES.

Regarding `CCC(c1ccc(C(O)(C(F)(F)F)C(F)(F)F)cc1)S(=O)(=O)c1ccccc1` (stereo not drawn) [Example 15, 1,1,1,3,3,3-Hexafluoro-2-{4-[1-(phenylsulfonyl)propyl]phenyl}propan-2-ol], the melting point was found to be 148 °C.

On to `C=CCC(c1ccc(C(O)(C(F)(F)F)C(F)(F)F)cc1)S(=O)(=O)c1ccccc1` (stereo not drawn) [Example 14, 1,1,1,3,3,3-Hexafluoro-2-{4-[1-(phenylsulfonyl)but-3-enyl]phenyl}propan-2-ol], for which the melting point turned out to be 148 °C. Take `O=S(=O)(Cc1ccc(C(O)(C(F)(F)F)C(F)(F)F)cc1)c1ccc(Br)cc1` [Example 4, 2-(4-{[(4-Bromophenyl)sulfonyl]methyl}phenyl)-1,1,1,3,3,3-hexafluoropropan-2-ol]: the melting point stood at 126 °C.

`CC(C)(c1ccc(C(O)(C(F)(F)F)C(F)(F)F)cc1)S(=O)(=O)c1ccccc1` [Example 19, 1,1,1,3,3,3-Hexafluoro-2-{4-[1-methyl-1-(phenylsulfonyl)ethyl]phenyl}propan-2-ol] displayed a melting point of 185 °C.

As to `O=S(=O)(Cc1ccc(C(O)(C(F)(F)F)C(F)(F)F)cc1)c1ccccc1Br` [Example 5, 2-(4-{[(2-Bromophenyl)sulfonyl]methyl}phenyl)-1,1,1,3,3,3-hexafluoropropan-2-ol], the melting point worked out at 124 °C. Compound `CC(C)(C)C(=O)C(c1ccc(C(O)(C(F)(F)F)C(F)(F)F)cc1)S(=O)(=O)c1ccccc1` (stereo not drawn) [Example 11, 3,3-Dimethyl-1-(phenylsulfonyl)-1-{4-[2,2,2-trifluoro-1-hydroxy-1-(trifluoromethyl) -ethyl]phenyl}butan-2-one] came in with a melting point of 172 °C. Then `O=S(=O)(c1ccccc1)C(CC(F)(F)F)c1ccc(C(O)(C(F)(F)F)C(F)(F)F)cc1` (stereo not drawn) [Example 16, 1,1,1,3,3,3-Hexafluoro-2-{4-[3,3,3-trifluoro-1-(phenylsulfonyl)propyl]phenyl}propan-2-ol], with 151 °C; and `O=S(=O)(Cc1ccc(C(O)(C(F)(F)F)C(F)(F)F)cc1)c1cccc(Br)c1` [Example 6, 2-(4-{[(3-Bromophenyl)sulfonyl]methyl}phenyl)-1,1,1,3,3,3-hexafluoropropan-2-ol], with 121 °C. For the compound `Cc1ccc(S(=O)(=O)Cc2ccc(C(O)(C(F)(F)F)C(F)(F)F)cc2)cc1` [Example 2, 1,1,1,3,3,3-Hexafluoro-2-(4-{[(4-methylphenyl)sulfonyl]methyl}phenyl)propan-2-ol], the melting point is 129 °C.

In turn, `O=S(=O)(c1ccccc1)C(Cc1ccccc1)c1ccc(C(O)(C(F)(F)F)C(F)(F)F)cc1` (stereo not drawn) [Example 9, 1,1,1,3,3,3-Hexafluoro-2-{4-[2-phenyl-1-(phenylsulfonyl)ethyl]phenyl}propan-2-ol] had a melting point of 157 °C. Then `CC(c1ccc(C(O)(C(F)(F)F)C(F)(F)F)cc1)S(=O)(=O)c1ccccc1` (stereo not drawn) [Example 8, 1,1,1,3,3,3-Hexafluoro-2-{4-[1-(phenylsulfonyl)ethyl]phenyl}propan-2-ol], with 136 °C; and `O=S(=O)(Cc1ccc(C(O)(C(F)(F)F)C(F)(F)F)cc1)c1ccc(Cl)cc1` [Example 7, 2-(4-{[(4-Chlorophenyl)sulfonyl]methyl}phenyl)-1,1,1,3,3,3-hexafluoropropan-2-ol], with 112 °C; and `Cc1ccc(CC(c2ccc(C(O)(C(F)(F)F)C(F)(F)F)cc2)S(=O)(=O)c2ccccc2)cc1` (stereo not drawn) [Example 17, 1,1,1,3,3,3-Hexafluoro-2-{4-[2-(4-methylphenyl)-1-(phenylsulfonyl)ethyl]phenyl}propan-2-ol], with 159 °C.

`O=S(=O)(c1ccccc1)C(Cc1ccc(-c2ccccc2)cc1)c1ccc(C(O)(C(F)(F)F)C(F)(F)F)cc1` (stereo not drawn) [Example 18, 2-{4-[2-(1,1′-Biphenyl-4-yl)-1-(phenylsulfonyl)ethyl]phenyl}-1,1,1,3,3,3-hexafluoropropan-2-ol] gave a melting point of 192 °C. Regarding `O=S(=O)(Cc1ccc(C(O)(C(F)(F)F)C(F)(F)F)cc1)c1ccc2ccccc2c1` [Example 3, 1,1,1,3,3,3-Hexafluoro-2-{4-[(2-naphthylsulfonyl)methyl]phenyl}propan-2-ol], the melting point worked out at 148 °C.

The term melting point denotes the temperature, or range, at which the solid turns liquid.
